Here are results for 123 molecules from a melting point compilation (Tetko et al.).

A word on the melting point: it is the temperature, or range, at which the solid turns liquid. `Nc1ccc2[nH]c(C(F)F)nc2c1` returned a melting point of 129 to 131 °C.

Molecule `O=C(O)c1cccc(S(=O)(=O)NCc2cccs2)c1` had a melting point of 223 to 225 °C.

`O=[N+]([O-])c1cnc2c(c1)CCCC2`: the melting point lay in the range of 71 to 73 °C.

Consider `O=C(c1ccc(F)cc1)c1ccc(C(F)(F)F)cc1`, for which the melting point was 100 to 102 °C.

Regarding `CNc1ccncn1`, the melting point is 77 to 79 °C.

In the case of `CC(c1nc(-c2ccc(Cl)cc2)no1)N1CCNCC1` (stereo not drawn), the melting point lay within 78 to 80 °C.

`CC(C)c1ccc(C(CN)NC(=O)OC(C)(C)C)cc1` (stereo not drawn) had a melting point of 123 to 125 °C.

For the molecule `CC(Cl)C(=O)Nc1cc(Cl)ccc1Cl` (stereo not drawn), the melting point is 123 to 125 °C.

`Nc1ccc(C(=O)NCc2ccccc2F)cc1` came in with a melting point of 95 to 97 °C.

Regarding `Nc1ccc(Oc2cccc(Cl)c2)cc1`, the melting point was in the range of 41 to 43 °C.

`COCCNS(=O)(=O)c1ccc(Br)c(C(=O)O)c1` showed a melting point of 194 to 197 °C.

With `Cc1nc(N)c(Cl)cc1Cl`, the melting point was in the range of 136 to 138 °C.

Take `COc1ccc2c(c1)C(=O)CCO2`: the melting point lay in the range of 44 to 46 °C.

The molecule `N#CC1(C(=O)O)CCc2ccccc2C1` (stereo not drawn) showed a melting point of 123 to 125 °C.

Consider `Cn1c(S)nnc1-c1cncc(N)c1`, for which the melting point is 206 to 208 °C.

Consider `Nc1sc2c(c1C(=O)c1ccc(C(F)(F)F)cc1)CCC2`, for which the melting point was in the range of 200 to 202 °C.

`Cc1noc2nc(-c3cc(F)ccc3F)cc(C(=O)O)c12` had a melting point of 237 to 239 °C.

Turning to `Nc1ccc(-c2nncn2-c2ccccc2)cn1`, the melting point is 219 to 221 °C.

`CC(=O)c1cccc(S(=O)(=O)NCC(=O)O)c1`: the melting point lay within 188 to 190 °C.

The molecule `O=C(O)c1ccc(-c2ccccc2Cl)o1` came in with a melting point of 210 to 212 °C.

In the case of `C#CCNC(=O)c1ccccc1N`, the melting point lay in the range of 96 to 98 °C.

In turn, `CCN(CC)S(=O)(=O)c1ccc(O)c([N+](=O)[O-])c1` yielded a melting point of 82 to 84 °C.

As to `CSc1cc(Br)ccc1C=O`, the melting point is 81 to 83 °C.

Regarding `O=C(CCl)Nc1ccc2[nH]c(=O)[nH]c2c1`, the melting point lay within 230 to 232 °C.

As to `NCC(O)COCc1ccccc1` (stereo not drawn), the melting point was in the range of 74 to 76 °C.

On to `CCN(CC)S(=O)(=O)c1ccc(OC)c(C(=O)O)c1`, for which the melting point fell in the range of 119 to 121 °C.

In the case of `O=C(O)c1cc(O)nc2ccc(S(=O)(=O)N3CCOCC3)cc12`, the melting point was in the range of 304 to 306 °C.

`CCN(CC)S(=O)(=O)c1ccc(NCCO)c(N)c1`: the melting point is 157 to 159 °C.

`OCCNc1cccnn1` registered a melting point of 77 to 79 °C.

Molecule `NC(=S)c1cccc(C(F)(F)F)c1` yielded a melting point of 66 to 68 °C.

`O=C(O)c1ccc(S(=O)(=O)Cl)cc1Cl` yielded a melting point of 133 to 135 °C.

`O=C1COc2cccc(S(=O)(=O)Cl)c2N1`: the melting point was 96 to 98 °C.

Turning to `CC(Oc1ccccc1C(F)(F)F)C(=O)O` (stereo not drawn), the melting point lay in the range of 145 to 147 °C.

As for `Cc1cc(C)c(C(=O)O)c(=O)[nH]1`, the melting point lay within 234 to 236 °C.

`O=C(O)COc1cccc(C(F)(F)F)c1` had a melting point of 85 to 87 °C.

With `CC1CCCC(NC(=O)NC(=O)CCl)C1C` (stereo not drawn), the melting point was 131 to 133 °C.

Molecule `O=C(O)CCSCc1nc2ccccc2c(=O)[nH]1` registered a melting point of 193 to 195 °C.

`Cc1ccc(C(=O)O)cc1S(C)(=O)=O` came in with a melting point of 209 to 211 °C.

The molecule `Cc1nc(C(=O)O)nn1-c1ccccc1C(C)C` showed a melting point of 175 to 177 °C.

The molecule `O=C(Nc1ccccn1)c1ccc(Br)cc1` had a melting point of 134 to 136 °C.

The molecule `Nc1[nH]ncc1-c1ccc2c(c1)OCO2` showed a melting point of 166 to 168 °C.

`NC(CSCCOc1ccccc1)C(=O)O` (stereo not drawn) registered a melting point of 214 to 216 °C.

`N[C@H]1CC[C@@H](CO)CC1` displayed a melting point of 144 to 146 °C.

Turning to `Clc1ccc(NCc2ccccn2)cc1`, the melting point was 87 to 89 °C.

`N#CCc1cc(Br)c2c(c1)C=CCO2` returned a melting point of 79 to 81 °C.

In the case of `CC(=O)CCc1ccc(O)c(F)c1`, the melting point is 88 to 90 °C.

In turn, `N#Cc1ccc(S(=O)(=O)N2CCC(O)CC2)cc1` returned a melting point of 161 to 163 °C.

Molecule `ON=Cc1ccncn1` came in with a melting point of 150 to 152 °C.

The molecule `Cc1ccc(/C=C/C(=O)O)cc1Cl` came in with a melting point of 194 to 196 °C.

Molecule `N#CC1=C(Cl)CCCC1` came in with a melting point of 38 to 40 °C.

With `CCCC1(CCC)NC(=O)NC1=O`, the melting point fell in the range of 205 to 207 °C.

Take `Cc1nnc(CO)o1`: the melting point lay in the range of 129 to 131 °C.

Consider `COC(=O)c1sc(C)c(Br)c1O`, for which the melting point was in the range of 95 to 97 °C.

As to `Cc1ncc(N)s1`, the melting point lay in the range of 120 to 122 °C.

Regarding `CCC1C(=O)NCCN1C(N)=S` (stereo not drawn), the melting point was 216 to 218 °C.

Molecule `NC(=O)c1csc(C(=O)CCl)c1` came in with a melting point of 175 to 177 °C.

With `COCCN1C(=O)C(=O)c2ccc(Br)cc21`, the melting point fell in the range of 139 to 141 °C.

As to `Cc1ccc(CNC(=O)n2ccnc2)cc1`, the melting point is 132 to 134 °C.

For the molecule `O=C(CCl)N1CCCC1`, the melting point fell in the range of 56 to 58 °C.

Regarding `O=C(O)c1cc(Cl)c(Cl)[nH]1`, the melting point was in the range of 164 to 166 °C.

Turning to `Nc1cc(I)ccc1O`, the melting point lay within 135 to 137 °C.

As for `O=C(CCl)Nc1cccc(C(=O)N2CCSCC2)c1`, the melting point fell in the range of 152 to 154 °C.

As to `COc1cccc(NC(=O)COc2ccc(C(=O)O)cc2)c1`, the melting point was in the range of 131 to 134 °C.

Regarding `Cc1cc(O)nc(C2CC2)n1`, the melting point lay within 190 to 192 °C.

`O=C(O)CCc1nc2sc3c(c2c(=O)[nH]1)CCC3` displayed a melting point of 220 to 222 °C.

Take `CC(C)C(=O)NC(C)c1ccc(S(=O)(=O)Cl)s1` (stereo not drawn): the melting point is 68 to 70 °C.

For the molecule `Nc1cc(Cl)ccc1-n1cncn1`, the melting point was in the range of 93 to 97 °C.

`O=C(O)c1cc(Cl)c(Cl)cc1C(=O)O`: the melting point is 201 to 203 °C.

In the case of `COc1ccc(C2(c3ccc(OC)cc3)NC(=O)NC2=O)cc1`, the melting point lay within 237 to 239 °C.

The molecule `O=Cc1cc(Cl)cc2cccnc12` yielded a melting point of 155 to 157 °C.

Take `CC(C)CCc1ccc(S(=O)(=O)Cl)cc1`: the melting point lay in the range of 35 to 39 °C.

`CC(C)Oc1ccc([N+](=O)[O-])cc1CBr` showed a melting point of 69 to 71 °C.

In the case of `NC1(c2cccc(F)c2)CCOCC1`, the melting point was 48 to 50 °C.

`CC1CCC(C)N1c1cn[nH]c1` (stereo not drawn): the melting point fell in the range of 65 to 67 °C.

On to `O=C(O)c1cnn(-c2ccccc2)c1Br`, for which the melting point lay within 214 to 216 °C.

`Nc1ccccc1Oc1ccncc1` showed a melting point of 98 to 100 °C.

Regarding `O=C(O)c1c(F)ccc(OC(F)F)c1F`, the melting point was in the range of 90 to 92 °C.

In turn, `O=C1CCCN1C1CCNCC1` came in with a melting point of 84 to 86 °C.

In turn, `COc1cc(C=O)cc2c1OCCO2` displayed a melting point of 81 to 83 °C.

On to `Nc1cnccc1CO`, for which the melting point was in the range of 112 to 114 °C.

Molecule `CC(Cl)C(=O)N1CCc2ccccc21` (stereo not drawn) yielded a melting point of 106 to 108 °C.

Molecule `CC(C)c1ccc(S(=O)(=O)c2ccc(NN)cc2)cc1` yielded a melting point of 191 to 193 °C.

`OCc1cncc2ccccc12`: the melting point was 86 to 88 °C.

Molecule `COc1cc(CCl)ccc1S(C)(=O)=O` registered a melting point of 106 to 108 °C.

For the molecule `O=C(NCc1ccc2c(c1)OCO2)n1ccnc1`, the melting point was 108 to 110 °C.

As for `O=C1Nc2cc(SCc3ccccc3)ccc2C1=O`, the melting point is 248 to 250 °C.

On to `O=C1CCC2(CC1)NC(=O)NC2=O`, for which the melting point fell in the range of 199 to 201 °C.

`Nc1cc(I)ccc1Cl` displayed a melting point of 56 to 58 °C.

As for `CC(=O)c1nnn(-c2ccc(Cl)cc2)c1C`, the melting point was 113 to 115 °C.

Consider `Nc1nnc(-c2ccoc2)[nH]1`, for which the melting point fell in the range of 188 to 190 °C.

Molecule `O=C(O)CN1CCCS1(=O)=O` came in with a melting point of 83 to 85 °C.

Consider `CN1CCN(C2=c3ccccc3=Nc3ccc(Cl)cc3N2)CC1`, for which the melting point lay within 184 to 186 °C.

Consider `O=C(O)c1ccc(C2SCCS2)cc1`, for which the melting point fell in the range of 166 to 168 °C.

Turning to `Nc1cc(-c2ccoc2)nn1-c1ccccc1`, the melting point was 129 to 131 °C.

`O=C(O)CC(=O)c1ccc(O)cc1` showed a melting point of 89 to 91 °C.

Regarding `CCc1cc(=O)[nH]c(-c2ccncc2)n1`, the melting point is 172 to 174 °C.

For the molecule `COc1cccc2c1CCC2=O`, the melting point was in the range of 105 to 107 °C.

The molecule `CC1=CC=CC(=C2Nc3cc(F)ccc3N2C(C)C)C1=N` showed a melting point of 185 to 187 °C.

Turning to `O=C1OC(O)C(Cl)=C1Cl` (stereo not drawn), the melting point fell in the range of 179 to 182 °C.

In the case of `NC(Cc1nc2ccccc2s1)=NO`, the melting point is 159 to 161 °C.

As to `O=C(O)C1CC1[N+](=O)[O-]` (stereo not drawn), the melting point was 123 to 125 °C.

In turn, `CC(C)(C)c1cc(NC(=O)CBr)on1` came in with a melting point of 139 to 141 °C.

The molecule `CNC(=O)c1c(Cl)ccc(S(=O)(=O)NC)c1Cl` returned a melting point of 231 to 233 °C.

In turn, `Cc1cccc(-n2cc(C(=O)CCl)nn2)c1` came in with a melting point of 141 to 143 °C.

For the molecule `COC(=O)COc1ccc(N)c2ccccc12`, the melting point was 83 to 85 °C.

In the case of `O=C1COc2c(F)cc(Br)cc21`, the melting point was in the range of 102 to 104 °C.

Molecule `Cc1cc(C)cc(C2(C(=O)O)CC2)c1` gave a melting point of 164 to 166 °C.

Regarding `Cc1ccc2c(CCC(=O)O)c[nH]c2c1`, the melting point lay in the range of 127 to 129 °C.

For the molecule `Nc1cccc2c1C(=O)NC2=O`, the melting point lay within 268 to 270 °C.

The molecule `CCn1c2ccccc2c2cc(CNCCCO)ccc21` yielded a melting point of 76 to 78 °C.

The molecule `Cc1ccc(-n2cc(C(=O)O)nn2)cc1` registered a melting point of 160 to 162 °C.

As to `NS(=O)(=O)c1ccc(F)c(C(=O)O)c1`, the melting point lay within 186 to 188 °C.

For the molecule `O=C(O)c1nn(-c2ccccc2I)cc1O`, the melting point is 198 to 200 °C.

The molecule `Sc1nc2ccccc2nc1S` yielded a melting point of 345 to 347 °C.

Consider `Nc1ccc(S(=O)(=O)CC2CCCO2)cc1` (stereo not drawn), for which the melting point is 100 to 102 °C.

With `O=C(O)c1cc(Cl)no1`, the melting point was in the range of 139 to 141 °C.

For the molecule `CC(=O)c1cccc([N+](=O)[O-])c1C`, the melting point fell in the range of 49 to 51 °C.

`Cc1ccc(N)c(Cl)c1Cl` returned a melting point of 45 to 47 °C.

The molecule `Cn1cc(C(=O)O)ccc1=O` had a melting point of 236 to 238 °C.

On to `Cc1ncc(C=O)n1-c1ccccc1`, for which the melting point lay in the range of 64 to 66 °C.

In turn, `CC(=O)Nc1ccc(N)c(Br)c1` had a melting point of 79 to 81 °C.

`Cn1cc(-c2csc(N)n2)cn1` returned a melting point of 230 to 232 °C.

As to `COc1ccc2c(c1)C=C(C(=O)O)CO2`, the melting point was in the range of 184 to 186 °C.
